pEC50: −log10 of the molar value. Structures can show the parent of a compound that is named as a salt.
What was measured:
[1] = target: T1, human TLR7 (Homo sapiens, UniProt Q9NYK1); assay: HEK-Blue hTLR7 reporter cell assay (SEAP, NF-kB/AP-1) for stimulation of human TLR7; assay type: cell-based; details: HEK-Blue hTLR7 cells, 24 h incubation, SEAP readout; read-out: TLR7_EC50
T1 construct: host or cells: HEK293 (HEK-Blue hTLR7)
T1 sequence (Q9NYK1 27-1049): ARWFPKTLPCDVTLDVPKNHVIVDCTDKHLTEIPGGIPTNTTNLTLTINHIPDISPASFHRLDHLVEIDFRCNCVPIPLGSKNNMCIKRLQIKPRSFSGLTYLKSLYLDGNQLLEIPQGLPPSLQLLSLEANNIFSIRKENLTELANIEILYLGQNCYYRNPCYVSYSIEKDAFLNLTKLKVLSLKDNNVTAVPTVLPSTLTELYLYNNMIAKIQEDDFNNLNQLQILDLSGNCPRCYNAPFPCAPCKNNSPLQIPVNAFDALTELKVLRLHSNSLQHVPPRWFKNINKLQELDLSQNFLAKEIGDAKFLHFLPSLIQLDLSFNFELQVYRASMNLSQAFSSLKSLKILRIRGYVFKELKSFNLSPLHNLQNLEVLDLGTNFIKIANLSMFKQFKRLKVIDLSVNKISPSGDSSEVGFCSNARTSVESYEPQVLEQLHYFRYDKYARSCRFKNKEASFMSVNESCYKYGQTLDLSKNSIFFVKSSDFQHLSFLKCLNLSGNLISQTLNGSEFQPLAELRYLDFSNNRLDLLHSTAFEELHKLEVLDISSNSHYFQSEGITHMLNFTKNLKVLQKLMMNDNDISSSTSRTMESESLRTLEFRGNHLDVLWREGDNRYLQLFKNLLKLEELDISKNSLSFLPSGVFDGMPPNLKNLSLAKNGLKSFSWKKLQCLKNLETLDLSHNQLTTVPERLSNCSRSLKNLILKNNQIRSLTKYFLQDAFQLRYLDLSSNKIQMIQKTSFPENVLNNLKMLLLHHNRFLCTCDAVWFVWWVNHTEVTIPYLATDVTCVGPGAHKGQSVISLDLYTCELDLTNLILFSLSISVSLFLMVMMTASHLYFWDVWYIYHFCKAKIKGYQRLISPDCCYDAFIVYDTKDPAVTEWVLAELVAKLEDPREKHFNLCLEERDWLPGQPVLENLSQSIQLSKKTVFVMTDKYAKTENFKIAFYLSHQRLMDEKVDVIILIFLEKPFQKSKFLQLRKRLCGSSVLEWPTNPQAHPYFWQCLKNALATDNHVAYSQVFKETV
Procedure: (§1) The below tests, involving measuring the in vitro activity of some compounds of the disclosure on TLR7 and TLR8, were carried out using the HEK-Blue™ cells as reporter.
The activity described below, with respect to TLR7, TLR8, IFN-α2a, IL-6, IL29 and TNF-α, is given by the half maximal effective concentration (EC50), which corresponds to the concentration required to obtain a 50% of the activation. The lower the EC50, the less the concentration of the compound is required to produce 50% of maximum activation and the higher the potency.
(§2) In Vitro Assay for Studying the Stimulation of Human TLR7 and TLR8:
(§3) HEK-Blue™ hTLR7 Cells (#hkb-htlr7) and HEK-Blue™ hTLR8 Cells (#hkb-htlr8) from InvivoGen were used according to the manufacturer's instructions. These Reporter HEK293 cells were obtained by co-transfection of the hTLR7 or TLR8 gene and an optimized Secreted Embryonic Alkaline Phosphatase (SEAP) reporter gene which is placed under the control of the IFN-β minimal promoter fused to five NF-κB and AP-1-binding sites. Stimulation with a TLR7/8 ligand activates NF-kB and AP-1 which induce the production of SEAP. The cells are seeded in 96-well plate at 3.10E4 cells/well and incubated 18 to 24 h at 37° C., 5% CO2 before adding the compounds to evaluate. The cells are subsequently incubated with 3-fold serial dilutions of each of the compounds (0.01 to 20 μM) for 24 hours at 37° C., 5% CO2. Next, 20 μL of the supernatant is harvested and incubated with 200 μL of QUANTI-Blue™ Solution.

[2] = target: T2, human TLR8 (Homo sapiens, UniProt Q9NR97); assay: HEK-Blue hTLR8 reporter cell assay (SEAP, NF-kB/AP-1) for stimulation of human TLR8; assay type: cell-based; details: HEK-Blue hTLR8 cells, 24 h incubation, SEAP readout; read-out: TLR8_EC50
T2 construct: host or cells: HEK293 (HEK-Blue hTLR8)
T2 sequence (Q9NR97 27-1041): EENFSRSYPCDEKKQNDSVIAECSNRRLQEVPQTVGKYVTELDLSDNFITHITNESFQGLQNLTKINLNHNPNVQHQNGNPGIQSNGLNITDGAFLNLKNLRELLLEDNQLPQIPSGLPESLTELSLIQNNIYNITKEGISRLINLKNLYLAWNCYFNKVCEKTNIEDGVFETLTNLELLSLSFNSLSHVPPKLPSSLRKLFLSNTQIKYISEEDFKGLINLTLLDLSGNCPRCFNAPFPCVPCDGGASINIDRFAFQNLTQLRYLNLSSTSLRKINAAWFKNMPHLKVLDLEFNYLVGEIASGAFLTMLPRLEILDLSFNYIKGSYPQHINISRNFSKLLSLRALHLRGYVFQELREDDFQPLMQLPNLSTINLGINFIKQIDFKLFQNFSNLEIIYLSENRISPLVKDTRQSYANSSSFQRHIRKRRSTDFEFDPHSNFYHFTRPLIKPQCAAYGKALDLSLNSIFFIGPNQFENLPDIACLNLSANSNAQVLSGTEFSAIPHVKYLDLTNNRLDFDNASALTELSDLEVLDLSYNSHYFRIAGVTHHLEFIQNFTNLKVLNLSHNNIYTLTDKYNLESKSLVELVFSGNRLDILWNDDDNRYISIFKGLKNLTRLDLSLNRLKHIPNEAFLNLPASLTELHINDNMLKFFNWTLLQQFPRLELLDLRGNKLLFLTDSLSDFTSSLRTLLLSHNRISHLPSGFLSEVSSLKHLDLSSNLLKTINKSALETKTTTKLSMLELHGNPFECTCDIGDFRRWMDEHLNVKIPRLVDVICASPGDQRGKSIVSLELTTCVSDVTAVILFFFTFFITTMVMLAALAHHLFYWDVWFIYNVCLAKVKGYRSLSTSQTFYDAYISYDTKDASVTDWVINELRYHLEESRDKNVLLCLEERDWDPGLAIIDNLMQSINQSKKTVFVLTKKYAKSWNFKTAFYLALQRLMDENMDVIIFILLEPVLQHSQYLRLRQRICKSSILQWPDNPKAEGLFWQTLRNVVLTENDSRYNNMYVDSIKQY
Procedure: as §1, §2
as §3, with “The cells are subsequently incubated with 3-fold serial dilutions of each of the compounds (0.01 to 20 μM) for 24 hours at 37° C., 5% CO2.” left out

Compound | pEC50 [1] | pEC50 [2]
CCCCc1nc2c(N)nnc(-c3ccco3)c2n1Cc1ccc(OC)cc1 [Compound 55, 2-butyl-7-(furan-2-yl)-1-(4-methoxybenzyl)-1H-imidazo[4,5-d]pyridazine-4-amine] | 5.80 | < 4.70
CCCCc1nc2c(N)nnc(OC3CCOC3)c2n1Cc1ccc(OC)cc1 (centres unmarked) [Compound 56, 2-butyl-1-(4-methoxybenzyl)-7-((tetrahydrofuran-3-yl)oxy)-1H-imidazo[4,5-d]pyridazin-4-amine] | 6.64 | < 4.70
CCCCc1nc2c(N)nnc(OC3CCOCC3)c2n1Cc1ccc(OC)cc1 [Compound 57, 2-butyl-1-(4-methoxybenzyl)-7-((tetrahydro-2H-pyran-4-yl)oxy)-1H-imidazo[4,5-d]pyridazin-4-amine] | 6.46 | < 4.70
CCCCc1nc2c(N)nnc(OC3CCSC3)c2n1Cc1ccc(OC)cc1 (centres unmarked) [Compound 58, 2-butyl-1-(4-methoxybenzyl)-7-((tetrahydrothiophen-3-yl)oxy)-1H-imidazo[4,5-d]pyridazin-4-amine] | 6.36 | < 4.70
CCCCc1nc2c(N)nnc(C3=CCCCC3)c2n1Cc1ccc(OC)cc1 [Compound 66, 2-butyl-7-(cyclohex-1-en-1-yl)-1-(4-methoxybenzyl)-1H-imidazo[4,5-d]pyridazin-4-amine] | 5.54 | < 4.70
CCCCc1nc2c(N)nnc(OC3CCS(=O)(=O)C3)c2n1Cc1ccc(OC)cc1 (centres unmarked) [Compound 68, 3-((4-amino-2-butyl-1-(4-methoxybenzyl)-1H-imidazo[4,5-d]pyridazin-7-yl)oxy)tetrahydrothiophene 1,1-dioxide] | 5.32 | < 4.70
CCCCc1nc2c(N)nnc(Oc3ccccc3)c2n1Cc1ccc(OC)cc1 [Compound 72, 2-butyl-1-(4-methoxybenzyl)-7-phenoxy-1H-imidazo[4,5-d]pyridazin-4-amine] | 5.42 | < 4.70
CCCCc1nc2c(N)nnc(OC(C)C)c2n1Cc1cccnc1 [Compound 74, 2-butyl-7-isopropoxy-1-(pyridin-3-ylmethyl)-1H-imidazo[4,5-d]pyridazin-4-amine] | 6.23 | 4.75
CCCCc1nc2c(N)nnc(OC(C)C)c2n1Cc1ccncc1 [Compound 76, 2-butyl-7-isopropoxy-1-(pyridin-4-ylmethyl)-1H-imidazo[4,5-d]pyridazin-4-amine 2,2,2-trifluoroacetate] | 5.87 | < 4.70
CCCCc1nc2c(N)nnc(OC(C)C)c2n1CCCCCN [Compound 77, 1-(5-aminopentyl)-2-butyl-7-isopropoxy-1H-imidazo[4,5-d]pyridazin-4-amine] | 6.41 | < 4.70

Next, values leading:

pEC50 [1] | pEC50 [2] | Compound
6.03 | < 4.70 | CCCCc1nc2c(N)nnc(C3CCOC3)c2n1Cc1ccc(OC)cc1 (centres unmarked) [Compound 59, 2-butyl-1-(4-methoxybenzyl)-7-(tetrahydrofuran-3-yl)-1H-imidazo[4,5-d]pyridazin-4-amine]
6.09 | < 4.70 | CCCCc1nc2c(N)nnc(C=C(C)C)c2n1Cc1ccc(OC)cc1 [Compound 60, 2-butyl-1-(4-methoxybenzyl)-7-(2-methylprop-1-en-1-yl)-1H-imidazo[4,5-d]pyridazin-4-amine]
5.93 | < 4.70 | CCCCc1nc2c(N)nnc(CC(C)C)c2n1Cc1ccc(OC)cc1 [Compound 61, 2-butyl-7-isobutyl-1-(4-methoxybenzyl)-1H-imidazo[4,5-d]pyridazin-4-amine]
6.11 | < 4.70 | CCCCc1nc2c(N)nnc(-c3ccsc3)c2n1Cc1ccc(OC)cc1 [Compound 62, 2-butyl-1-(4-methoxybenzyl)-7-(thiophen-3-yl)-1H-imidazo[4,5-d]pyridazin-4-amine]
5.93 | < 4.70 | CCCCc1nc2c(N)nnc(-c3cccs3)c2n1Cc1ccc(OC)cc1 [Compound 63, 2-butyl-1-(4-methoxybenzyl)-7-(thiophen-2-yl)-1H-imidazo[4,5-d]pyridazin-4-amine]
5.51 | < 4.70 | CCCCc1nc2c(N)nnc(-c3ccc[nH]3)c2n1Cc1ccc(OC)cc1 [Compound 64, 2-butyl-1-(4-methoxybenzyl)-7-(1H-pyrrol-2-yl)-1H-imidazo[4,5-d]pyridazin-4-amine hydrochloride]
5.69 | < 4.70 | CCCCc1nc2c(N)nnc(-c3ccoc3)c2n1Cc1ccc(OC)cc1 [Compound 67, 2-butyl-7-(furan-3-yl)-1-(4-methoxybenzyl)-1H-imidazo[4,5-d]pyridazin-4-amine]
5.40 | < 4.70 | CCCCc1nc2c(N)nnc(-c3cccn3C)c2n1Cc1ccc(OC)cc1 [Compound 70, 2-butyl-1-(4-methoxybenzyl)-7-(1-methyl-1H-pyrrol-2-yl)-1H-imidazo[4,5-d]pyridazin-4-amine hydrochloride]
4.99 | < 4.70 | CCCCc1nc2c(N)nnc(C3=CCOC3)c2n1Cc1ccc(OC)cc1 [Compound 73, 2-butyl-7-(2,5-dihydrofuran-3-yl)-1-(4-methoxybenzyl)-1H-imidazo[4,5-d]pyridazin-4-amine]
